{"source": "patent US20110207685A1", "about": "“Oral Formulations of Chemotherapeutic Agents” (priority 2008, published 2011)", "key": {"[1]": {"assay": "Tolerance study (Step 1), relative body weight", "assay_type": "in vivo, nude mice", "details": "oral IRN alone group (100 mg/kg po qd×5)", "experimental": "When subcutaneous HT29 xenografts are detectable and reach a mean tumor volume of 150 mm3, groups of mice are randomly affected to the treatments. Mice without tumors were eliminated.\nMice in the control group received vehicle under a 750 μl volume.\nToxicity of the different treatments are determined as: body weight loss percent (% BWL max)=100−(mean BWx/mean BW1x 100), where BWx is the mean BW at the day of maximal loss during the treatment and BW1 is the mean BW on the 1st day of treatment.\nAll animals are weighted during the whole treatment period, in order to adjust the volume of drug administration and to calculate the percent body weight loss due to the different treatments."}, "[2]": {"assay": "Oral MTTD (tolerance) study on xenografted mice", "assay_type": "in vivo", "details": "for Clinical symptoms: po, J = 1 to 5, mice with s.c. HT-29 tumor", "experimental": "A tolerance and efficacy study on xenografted mice, in order to mimic as close as possible the in vivo model of colonic tumor, was carried out. As xenografted mice are very sensitive, the MTTD and efficacy study was done on mice with a subcutaneously implanted HT-29 colorectal human tumor cells."}, "[3]": {"assay": "MTTD study, one administration per week during three weeks", "assay_type": "in vivo, mice", "details": "J = 0, 7, 14", "experimental": "The schedule of the MTTD studies was one administration per week during three weeks. Each dose was tested on a group of 3 animals and the animals were monitored for 2 weeks after the end of the last treatment, clinical toxicity signs were observed and the animals weight taken every two days."}, "in vivo": {"assay": "in vivo", "details": "mouse, plasma", "procedure": "Three mice were used per time-point. Only one sampling was performed on the control group."}, "HT29 cells": {"test_system": "HT29 cells", "assay": "In vitro cytotoxicity on HT29 cells", "assay_type": "cell-based", "details": "Homo sapiens"}, "physchem": {"assay": "physchem", "details": "phosphate buffer (control for the cyclodextrin mixtures), aqueous buffer"}, "[4]": {"details": "free drug; cited from earlier work"}}, "note": "Where two headings read alike, the source gives them in different places."}
{"compound": "CCc1c2c(nc3ccc(OC(=O)N4CCC(N5CCCCC5)CC4)cc13)-c1cc3c(c(=O)n1C2)COC(=O)[C@]3(O)CC", "note": "[IRN, Irinotecan]", "values": [{"measurement": "body weight loss", "setting": "[1]", "value": "more than 15%"}, {"measurement": "toxicity / tolerance", "setting": "[2]; orally every day for 5 days, xenografted mice", "value": "induced an important weight loss"}, {"measurement": "Clinical symptoms", "setting": "[2]; 100 mg/kg BW", "value": "Weight loss, but mice"}, {"measurement": "Clinical symptoms", "setting": "[2]; 200 mg/kg BW", "value": "Important weight loss"}, {"measurement": "Clinical symptoms", "setting": "[3]; iv, 25 mg/kg BW", "value": "No clinical sign"}, {"measurement": "Clinical symptoms", "setting": "[3]; po, 200 mg/kg BW", "value": "No clinical sign"}, {"measurement": "AUC", "setting": "in vivo; iv, 20 mg/kg", "value": 1280, "unit": "ng·h/mL"}, {"measurement": "bioavailability", "setting": "in vivo; oral, 100 mg/Kg", "value": 27.1, "unit": "%"}, {"measurement": "AUC", "setting": "in vivo; po, 100 mg/kg", "value": 1740, "unit": "ng·h/mL"}, {"measurement": "Cmax", "setting": "in vivo; po, 100 mg/kg", "value": 477, "unit": "ng/mL"}, {"measurement": "Tmax", "setting": "in vivo; po, 100 mg/kg", "value": 2.06, "unit": "h"}, {"measurement": "IC50", "setting": "HT29 cells; HT-29, 96 h, read-out: IC50 [IRN], experiment GF411, HT29 cells, 4 days contact, as IRN concentration", "value": 0.75, "unit": "µg/mL"}, {"measurement": "IC50", "setting": "HT29 cells; HT-29, 96 h, read-out: IC50 [IRN], experiment GF464, HT29 cells, 4 days contact, as IRN concentration", "value": 0.8, "unit": "µg/mL"}, {"measurement": "IC50", "setting": "HT29 cells; HT-29, 96 h, read-out: IC50 [IRN], experiment GF522, HT29 cells, 4 days contact, as IRN concentration", "value": 0.85, "unit": "µg/mL"}, {"measurement": "IC50", "setting": "HT29 cells; HT-29, read-out: Mean IC 50 [IRN], mean of three experiments, HT29 cells, as IRN concentration", "value": 0.8, "unit": "µg/mL"}]}
{"compound": "CC(=O)O[C@@]12CO[C@@H]1C[C@H](O)[C@@]1(C)C(=O)[C@H](O)C3=C(C)[C@@H](OC(=O)[C@H](O)[C@@H](NC(=O)OC(C)(C)C)c4ccccc4)C[C@@](O)([C@@H](OC(=O)c4ccccc4)[C@H]21)C3(C)C", "note": "[docetaxel]", "values": [{"measurement": "solubility", "setting": "physchem", "value": "1.9 ± 0.1", "unit": "µg/mL"}]}
{"compound": "COc1cccc2c1C(=O)c1c(O)c3c(c(O)c1C2=O)C[C@@](O)(C(=O)CO)C[C@@H]3O[C@H]1C[C@H](N)[C@H](O)[C@H](C)O1", "note": "[doxorubicin, Doxorubicin]", "values": [{"measurement": "oral bioavailability compare to i. v. bioavailability", "setting": "[4]", "value": "about 5%"}]}
